The subject of experiment [1] is human ES cells. Nature of the experiment: Cell adhesion assay, 1 hour after plating on coated plates. The format is cell-based. On the procedure:
The assay was performed as described (Extracellular Matrix Protocols, 2000). Briefly, 96-well plates were coated by extracellular matrix proteins as described above and blocked by O3 medium containing bovine serum albumin. The ES cells were plated at a cell density of 600 cell/mm^2 upon extracellular matrix-coated plates and were left to adhere for either 1 hour or 1 day at the cell incubator. Non-adherent cells were washed away, and adherent cells were fixed for 20 min by 5% glutaraldehyde, stained by 0.1% Crystal Violet.
Briefly, 96-well plates were coated by extracellular matrix proteins as described above and blocked by O3 medium containing bovine serum albumin. The ES cells were plated at cell density of 50,000 cells/cm^2 onto extracellular matrix-coated plates and left to adhere for 1 hour in a cell incubator. After that the plates were washed 3 times with the medium to remove the non-adherent cells, and then the adherent cells were fixed for 20 minutes by 5% glutaraldehyde, stained by 0.1% Crystal Violet. (Kebo Lab, Spanga, Sweden, http://www.kebolab.se). After one hour and 3 washes with water, Crystal Violet was extracted with 10% acetic acid and quantified by measuring optical density at 570 nm. All the experiments were performed in quadruplicate.

The next experiment relates to human ES and iPS cells. Nature of the experiment: Long-term culture with single cell dissociation passaging. The format is cell-based. Particulars: for proliferation rate / increase in number of cells compared with Matrigel or classical methods: FIG. 8; for passages proliferated: O3 medium. On the procedure: Human ES cells were cultured on r-laminin-521-coated laboratory dishes in chemically defined O3 medium (described in Rodin et al., Nature Biotechnol., vol. 28, pp. 611-615 (2010)) at 37° C. in 5% CO2. Cells were routinely passed once every 10-12 days by exposure to Trypsin-EDTA solution (GIBCO Invitrogen) for 5 minutes at 37° C. They were then gently pipetted to break into single-cell suspension and defined trypsin inhibitor (GIBCO Invitrogen) was added. The cell suspension was centrifuged […], the supernatant discarded, the cell pellet resuspended in prewarmed O3 medium, and cells were then passed through a 40 μm sieve. After that cells were plated on new r-laminin-521-coated dishes at a concentration 30 Kcells/cm^2 (1:25-1:30 split ratio). Cells were fed once a day with fresh medium prewarmed in an incubator for 1 hour, except for the first day after a passage, when only a few drops of fresh medium were added. Control cells of the same line were cultured on Matrigel (BD Biosciences) in O3 medium as described in Rodin et al., Nature Biotechnol., vol. 28, pp. 611-615 (2010). Control cells were passaged in pieces.
Human ES cells of HS181 and HS401 were cultured on LN-521-coated culture dishes in O3 medium (described in Rodin et al., Nature Biotechnol., vol. 28, pp. 611-615 (2010) with pH was adjusted to 7.35), mTeSR1 (STEMCELL Technologies) and chemically defined and xeno-free TeSR2 (STEMCELL Technologies) at 37° C., 5% CO2. Initially, cells of the lines were transferred onto a LN-521 coating from a human feeder cell layer by careful scratching using a sterile knife with subsequent trypsinization, or the cells were trypsinized into single cell suspension from a LN-511 coating. The cells were provided once a day with fresh medium pre-warmed in an incubator for one hour, except for the first day after plating, when only a few drops of fresh medium were added. Cells were routinely passed once in 10-12 days by exposure to Trypsin/EDTA (GIBCO Invitrogen Corporation, Paisley, Scotland) for 5 minutes at 37° C., 5% CO2. They were then gently pipetted to break into single-cell suspension and a Defined Trypsin Inhibitor (GIBCO Invitrogen) was added. The cell suspension was centrifuged at 25 rcf for 4 minutes, the supernatant was discarded, the cell pellet was resuspended in prewarmed O3 medium, and the cells were then passed through a 40 μm sieve. Subsequently, the cells were plated on new LN-521-coated dishes at a concentration of 30,000 cells/cm^2 in 1:25-1:30 split ratios. Control cells of the same line were cultured on Matrigel (STEMCELL Technologies) and LN-511 in O3 medium as described previously.^9
For defined and xeno-free cultures, TeSR2 (STEMCELL Technologies) medium and defined free from any animal derived component TrypLE™ Select (GIBCO Invitrogen Corporation, Paisley, Scotland) enzyme were used. The cells were passed every 10-14 days by exposure to TrypLE™ Select for 4-5 minutes at 37° C., 5% CO2. Then, the enzyme was carefully aspirated and prewarmed TeSR2 medium was added. After that, the cells were gently pipetted to break into single-cell suspension, centrifuged, the supernatant was discarded, and the cell pellet was resuspended in prewarmed TeSR2. The cells were then passed through a 40 μm sieve and plated on a fresh LN-521 coated dish.

In experiment [2] the test system is human ES cells. Nature of the experiment: Real-time quantitative RT-PCR / marker expression of pluripotency and differentiation markers. The format is cell-based. On the procedure:
Total RNA was isolated and cDNA was synthesized as described in Rodin et al., Nature Biotechnol., vol. 28, pp. 611-615 (2010). Real-time quantitative RT-PCR Taqman assays were performed using the Applied Biosystems 7300 Real-Time PCR System. All reactions were done in quadruplicate with predeveloped gene expression assay mix (Applied Biosystems) containing primers and a probe for the mRNA of interest. Additional reactions for each experiment included predeveloped gene expression assay mix for GAPDH, used to normalize the RNA input. All data were analyzed with 7300 System SDS Software version 1.4.
Total RNA was isolated using Absolutely RNA Microprep Kit (Stratagene, La Jolla Calif., www.stratagene.com) according to the manufacturer's instructions. cDNA was synthesized using 0.2 μg of total RNA in 20 μl reaction mixture, containing oligo(dT)12-18 primers and Superscript II reverse transcriptase (GIBCO Invitrogen Corporation), according to the manufacturer's instructions. Real-time quantitative RT-PCR Taqman assays were performed using the Applied Biosystems 7300 Real-Time PCR System (Applied Biosystems, Foster City, Calif.). All reactions were done in quadruplicates with the use of a pre-developed gene expression assay mix (Applied Biosystems) containing primers and a probe for the mRNA of interest. […] All data was analyzed with 7300 System SDS Software v 1.4.

The next experiment has as its system SCID mouse. Nature of the experiment: Teratoma formation in SCID mice. The format is in vivo. Particulars: HS181 13, H1 12 passages in O3; H1 7 passages in TeSR2. On the procedure: Teratoma formation experiments were performed by implantation of approximately 10^6 cells beneath the testicular capsule of a young (7-week-old) severe combined immunodeficiency (SCID) mouse. Three animals per each cell line were used. Teratoma growth was observed by weekly palpation, and the mice were sacrificed eight weeks after the implantation. The teratomas were fixed, and sections were stained with hematoxylin and eosin (HE) or with hematoxylin, eosin and PAS (HE-PAS). […] All animal experiments were performed at the infection-free animal facility of the Karolinska University Hospital in accordance with ethical committee approval.

A value given as a limit tells only on which side of the number the result lay.

Turning to “LN-521: protein formed by joining laminin α5, β2 and γ1 chains; human recombinant, produced in HEK293 cells”, the “adhesion of human ES cells after 1 hour” value with human ES cells [1] (O3 medium without any additives, without Y-27632, FIG. 6) is given as “roughly the same”. Also, the “spreading of the cells after one hour compared with Matrigel or LN-111” value with human ES cells [1] (dissociated hES cells, not shown) was “clearly better”. Also, in the experiment on human ES and iPS cells (ChiPSW iPS cells, mTeSR1), the passages cultured was 3 passages. In addition, the “robust proliferation with stable and high rate” value with human ES and iPS cells (Example 1, O3 medium, 1:25 to 1:30, 3 months) is “at least 9 passages”. The “proliferation rate / increase in number of cells compared with Matrigel or classical methods” value is “much faster rate” in the experiment with human ES and iPS cells; “higher rate” with human ES and iPS cells (listed as laminin-521). In addition, the passages proliferated in the experiment on human ES and iPS cells (H1 cells, 6 months) was at least 15 passages; with human ES and iPS cells (HS181 cells, 9 months), “at least 24 passages”; with human ES and iPS cells (HS401 cells, 2 months), at least 5 passages. In addition, the “passages to undergo the same number of cell doublings as 20 passages (100 days / 3 months) by conventional methods on Matrigel” value with human ES and iPS cells (single cell suspension passaging, 1 month) was found to be 3 passages. Besides, the “number of mRNA transcripts of pluripotency markers Oct4 and Nanog compared with Matrigel” value in the experiment on human ES cells [2] (FIG. 11) is on record as “higher numbers of transcripts”. Further, in the experiment on human ES cells [2] (similar to cells on Matrigel passed as small clumps), the “expression levels of pluripotency markers Oct4, Nanog and SSEA4” value is recorded as “stable expression levels”. Also, the “tissues in teratomas formed in SCID mice” value in the experiment on SCID mouse is reported as “all three germ lineages”.

These data come from patent US9828630B2, “Methods of enhancing genetic diagnosis” (BioLamina AB, priority 2011, dated 2017).
